Patent US8809372B2, “Pyridine derivatives” (Endo Pharmaceuticals, Inc., priority 2011, dated 2014)
Where two headings read alike, the source gives them in different places.

Assays:
human CYP17 = target: T1, human CYP17 (Homo sapiens, UniProt P05093); experiment: CYP17 inhibition assay in yeast microsomes overexpressing human CYP17; format: biochemical; details: yeast microsomes expressing human CYP17
T1 construct: purchased Premas Biotech, India; host or cells: yeast (microsomes)
T1 sequence (P05093 1-508): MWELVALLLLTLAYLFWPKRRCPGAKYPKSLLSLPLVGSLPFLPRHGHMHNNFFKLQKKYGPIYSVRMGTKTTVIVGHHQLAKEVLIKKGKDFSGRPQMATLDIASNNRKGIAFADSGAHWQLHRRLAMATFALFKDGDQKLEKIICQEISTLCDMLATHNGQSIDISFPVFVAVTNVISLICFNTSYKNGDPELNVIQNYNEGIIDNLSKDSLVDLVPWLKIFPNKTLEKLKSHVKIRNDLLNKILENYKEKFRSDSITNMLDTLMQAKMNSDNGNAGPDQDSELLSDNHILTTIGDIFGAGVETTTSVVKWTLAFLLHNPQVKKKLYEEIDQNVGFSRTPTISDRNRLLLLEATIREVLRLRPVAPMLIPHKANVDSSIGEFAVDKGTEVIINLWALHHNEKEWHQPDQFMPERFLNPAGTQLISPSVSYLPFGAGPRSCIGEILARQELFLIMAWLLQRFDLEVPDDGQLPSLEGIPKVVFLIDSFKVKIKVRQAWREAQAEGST
Experimental: CYP17 Inhibition Assay in Rat Testicular Microsomes (Rat CYP17) or Yeast Microsome Overexpressing Human CYP17
1. NADPH (Sigma): A working stock was prepared by adding 25 μL of 6.5 mM NADPH in each tube. The final concentration of NADPH used in the assay was 325 μM.
2. Potassium Phosphate Buffer: One molar (1M) solutions of K2HPO4 and KH2PO4 were prepared. Eight mL of the 1 M KH2PO4 and 1.98 mL of the 1 M K2HPO4 were combined and the pH was adjusted to 7.4.
3. ^3H3-17α-hydroxypregnenolone (American Radiolabeled Chemicals, Inc., stock 1 μCi/μL): A 1:1 dilution of ^3H3-17α-hydroxypregnenolone in ethanol was prepared by combining 100 μL ^3H3-17α-hydroxypregnenolone+100 μL ethanol for one complete 96 well plate. For the reaction, 2 μL of the diluted ^3H3-17α-hydroxypregnenolone was added in each tube, i.e., 1 μCi/reaction. 4. Microsome Isolation Buffer: The microsome isolation buffer was prepared by combining 250 mM Sucrose, 5 mM EDTA, 10 mM Tris HCl, 4 mM DTT, and adjusting to pH 7.4. 5. TEG Buffer: The TEG buffer was prepared by combining 50 mM Tris HCl, 1 mM EDTA, and 20% Glycerol. 6. Rat Testicular Microsomes: Rat testis tissue was collected and disrupted with 30 strokes of a glass homogenizer on ice with 250 μL of microsome isolation buffer, followed by centrifugation at 10,000 g for 10 minutes at 4° C. The supernatant was collected and centrifuged at 100,000 g for 45 minutes at 4° C. The pellet was dissolved in TEG Buffer and the protein was quantified. The homogenized microsome samples were then frozen at −80° C. • 7. Yeast Microsomes which overexpress the human CYP17 enzyme were obtained from Premas Biotech, India.
Potassium phosphate buffer (470 μL) was prepared as described above and was added to each well of a deep well plate. The test compound was diluted using a TECAN liquid handler and 5 μL of diluted compound was transferred to each well (96 deep well/1 mL). A solution (25 μL) of 6.5 mM NADPH was added (final concentration of 325 μM in the assay). ^3H3-17α-hydroxypregnenolone (2 μL of the working stock) was added to each tube. The plates were then pre-incubated for 15 minutes at 37° C. Following the pre-incubation, either 5 μL rat testicular microsomes (150-160 μg) or 5 μL of yeast microsomes expressing human CYP17 (1.7 pmol), was added. Incubation was at 37° C. for 60 minutes in the presence of oxygen. The plates were then placed in ice and chloroform (500 μL) was added, mixed well and incubated at 4° C. for 20 minutes. The plates were then centrifuged at 1000 rpm for 15 minutes at 4° C.
A portion (300 μL) of the aqueous solution was collected and mixed with a 5% aqueous suspension of activated charcoal (300 μL). The plates were then incubated at 4° C. for 30 minutes, after which the plates were centrifuged at 1000 rpm for 15 minutes at 4° C. From this, 125 μL of the aqueous solution was collected and plated into a 96 well plate. Microscint™ 40 [125 μL, Perkin-Elmer; containing a mixture of a polymer based on alkylphenolethoxylate (20-40%), diethanolamine-phosphoric acid ester ammonium salt (10-20%), sodium dioctyl sulphosuccinate (2.5-10%), triethyl phosphate (2.5-10%), 3,6-dimethyl-4-octyne-3,6-diol (≦2.5%), a polymer based on nonylphenolethoxylate (≦2.5%), diisopropyl naphthalene isomers (40-60%), 2,5-diphenyloxazole (≦2.5%), and 9,10-dimethylanthracene] was added and mixed well. After 30 minutes of incubation, the samples were analyzed with a MicroBeta® Trilux microplate liquid scintillation counter and luminometer (Perkin-Elmer).

[1] = test system: testosterone production in H295R cells; experiment: Cell-based functional assay for testosterone production; parameters: species or system human
Experimental: Cell-Based Functional Assay for Testosterone Production
H295R cells (ATCC Number CRL-2128) were subcultured, seeded (30,000 cells per well in a poly-d lysine plate) and left overnight at 37° C. The next day (after approximately 24 hours), the media were removed and 200 μL fresh media were added. Then, 50 μL of serially diluted compounds was added from a 5× plate. The serial dilution in the 100× plate (in DMSO) and the stamping of a 5× plate (in media) from the 100× plate were carried out using a TECAN liquid handling device. The plate was incubated at 37° C. for 72 hours. After incubation, the media was removed, diluted 5 to 10 times with calibration diluent RD5-48, and the assay performed as per manufacturer's protocol (Parameter Testosterone Assay, Cat. No. KGE010, R&D systems; http://www.mdsystems.com/pdf/KGE010.pdf).

serum testosterone level = experiment: In vivo inhibition of testosterone production; parameters: species or system rat; details: male rats, vs vehicle-dosed controls
Experimental: In vivo Inhibition of Testosterone Production
Male rats aged 8 to 10 weeks old were dosed orally with compounds at 10 or 30 mg/kg. Blood samples were drawn at 0.5, 3, 8, and 24 hours and were processed to plasma samples. Samples were analyzed for compound levels by LC-MS/MS method and for testosterone levels with an ELISA performed as per manufacturer's protocol (Parameter Testosterone Assay, Cat. No. KGE010, R&D systems; http://www.mdsystems.com/pdf/KGE010.pdf). The serum testosterone level was calculated from standards using GraphPad® Prism software and % inhibition at a given time was calculated by comparing the testosterone level in vehicle control animals at the same time of day.

[2] = Homo sapiens, NCI-H295R, 72 h, read-out: Testosterone (human H295R adrenal cells)
[3] = read-out: Testosterone (human H295R adrenal cells), H295R cells, 72 hours
[4] = Homo sapiens, NCI-H295R, 72 h, read-out: Testosterone (human H295R adrenal cells), H295R cells, 72 hours
[5] = 3-8 hours after a 30 mg/kg oral dose

Work on `COc1ccc(-c2ccc(C(C)(O)c3ccncc3)nc2)cc1` (racemic) [Example 1, 1-(5-(4-Methoxyphenyl)pyridin-2-yl)-1-(pyridin-4-yl)ethanol] yielded an IC50 (human CYP17) of 201 to 10000 nM and an IC50 [1, 2] of 50 to 200 nM.
`CC(O)(c1ccncc1)c1cnc(-c2ccc(F)cc2)s1` (racemic) [Example 7, 1-(2-(4-Fluorophenyl)thiazol-5-yl)-1-(pyridin-4-yl)ethanol] was tested, and the IC50 (human CYP17) was 50 to 200 nM, the IC50 [1, 2] was < 50 nM and the “decrease of serum testosterone levels” value (serum testosterone level; 3-8 hours after a 10 mg/kg oral dose) was 70-85%.
In the case of `COc1ccc(-c2ccc(C(C)(O)c3ccncc3)nc2)cc1` (single isomer, unassigned) [Example 2, 1-(5-(4-methoxyphenyl)-pyridin-2-yl)-1-(pyridin-4-yl)ethanol], the IC50 [1, 3] is reported as 50 to 200 nM.
`COc1ccc(-c2ccc(C(C)(O)c3ccncc3)nc2)cc1` (single isomer, unassigned) [Example 3, 1-(5-(4-methoxyphenyl)-pyridin-2-yl)-1-(pyridin-4-yl)ethanol] gave an IC50 [1, 4] of 50 to 200 nM.
In the case of `CC(O)(c1ccncc1)c1cnc(-c2ccc(F)cc2)s1` (single isomer, unassigned) [Example 8, 1-(2-(4-fluorophenyl)thiazol-5-yl)-1-(pyridin-4-yl)ethanol], the IC50 (human CYP17) is reported as 201 to 10000 nM and the IC50 [1, 4] is reported as 50 to 200 nM.
In the case of `CC(O)(c1ccncc1)c1cnc(-c2ccc(F)cc2)s1` (single isomer, unassigned) [Example 9, 1-(2-(4-fluorophenyl)thiazol-5-yl)-1-(pyridin-4-yl)ethanol], the IC50 (human CYP17) is reported as 50 to 200 nM and the IC50 [1, 3] is reported as < 50 nM.
`CC(O)(c1ccncc1)c1nc(-c2ccc(F)cc2)no1` (single isomer, unassigned; (+)) [Example 36, (+)-1-(3-(4-fluoro-phenyl)-1,2,4-oxadiazol-5-yl)-1-(pyridin-4-yl)ethanol] was tested, and the IC50 (human CYP17) was < 50 nM.
With `Cn1cc(-c2ccc(C(C)(O)c3ccncc3)s2)ccc1=O` (single isomer, unassigned; (-)) [Example 17, (−)-5-(5-(1-hydroxy-1-(pyridin-4-yl)ethyl)thiophen-2-yl)-1-methylpyridin-2(1H)-one] the IC50 (human CYP17) was 50 to 200 nM and the “decrease of serum testosterone levels” value (serum testosterone level; [5]) was 30-60%.
For `CCC(O)(c1ccncc1)c1cnc(-c2ccc(F)cc2)s1` (centres unmarked) [Example 4, 1-(2-(4-fluorophenyl)-thiazol-5-yl)-1-(pyridin-4-yl)propan-1-ol], the IC50 [1, 4] was < 50 nM.
`CC(O)(c1ccncc1)c1ncc(-c2ccc(F)cc2)s1` (centres unmarked) [Example 14, 1-(5-(4-Fluorophenyl)thiazol-2-yl)-1-(pyridin-4-yl)ethanol] was tested, and the “decrease of serum testosterone levels” value (serum testosterone level; [5]) was 60-80%.
Work on `Cn1cc(-c2ccc(C(C)(O)c3ccncc3)s2)ccc1=O` (centres unmarked) [Example 15, 5-(5-(1-Hydroxy-1-(pyridin-4-yl)ethyl)thiophen-2-yl)-1-methyl-pyridin-2(1H)-one] yielded an IC50 (human CYP17) of 201 to 10000 nM.
